Source: patent US20260048145A1, “COMPOSITIONS AND METHODS FOR TREATING DRUG ADDICTION” (The Children's Medical Center Corporation, priority 2022, published 2026)

Assays:
[1] = after administration; cited from earlier work
NAc Tac2+ neurons [2] = experiment: Single-cell calcium imaging during cocaine-conditioned place preference; type: in vivo, mice; conditions: post-conditioning
Description: Next, the dynamics of Tac2 neuronal activity was analyzed during cocaine reward-contextual association. To this end, single-cell calcium imaging was applied to a cocaine-conditioned place preference (CPP) test (FIG. 3A). In the pre-conditioning session, mice were allowed to freely explore the two chambers with differential contextual patterns while calcium signal being recorded. In the conditioning sessions, mice were given alternate saline and cocaine (15 mg/kg) injections (6 hours apart) and were confined to a specific chamber paired with saline or cocaine. In the post-conditioning session, mice were again allowed to freely explore the two chambers while calcium signal being recorded (FIG. 3A). […] After extracting the calcium signal traces, and corresponding calcium signal transients of individual neurons in pre-conditioning and post-conditioning sessions, signal traces or transient frequencies were compared during the periods when mice are in saline-coupled chamber or cocaine-coupled chamber (staying time>5 seconds). […] To further validate these findings, calcium activity traces were analyzed when mice stayed in the saline chamber or cocaine chamber. […] Moreover, by focusing on the short period around the mice entering the cocaine chamber (−5 seconds to 5 seconds, regarding the entering as 0 second), it was determined that the neuronal activity of the cocaine chamber excited neurons (neurons with […] calcium signal in cocaine chamber) increased rapidly when mice entered the cocaine chamber, while the cocaine chamber inhibited neurons (neurons with […] calcium signal in cocaine chamber) decreased their activity when mice entered the cocaine chamber (FIGS. 3F-3G).
Custom-made two-compartment CPP chambers (50×25×25 cm, L×D×H) were used with visual cues: the floor and the walls of one chamber were decorated with black horizontal stripes and the other chamber was decorated with yellow diagonal stripes. The modified cocaine-CPP consists of three sessions. […] The time spent in different chambers was recorded, the less preferred chamber was assigned as the cocaine chamber and used to condition cocaine injections, while the other chamber was assigned as the saline chamber and used to condition saline injections. […] Finally, the next day following conditioning, in the post-condition recording session, calcium activity of mice was again recorded while freely exploring the two chambers for 15 minutes. The mouse trajectories were recorded using a webcam (Logitech) with top view, and the time when the mice staying or entering chambers was analyzed using Etho Vision XT 11 (Noldus) and was also manually inspected. […]

NAc Tac2+ neurons [3] = experiment: Single-cell calcium imaging of Tac2+ neurons following acute cocaine injection; type: in vivo, mice; conditions: for recorded Tac2+ neurons showing decreased activity / recorded Tac2+ neurons showing increased activity: cocaine 15 mg/kg i.p.
Source text: To explore a potential role for Tac2^+ neurons in drug-related behavior, Tac2 neuronal activity was monitored using single-cell calcium imaging upon psychostimulant drug (cocaine) treatment. To this end, GCaMP6m, which reports calcium fluctuations and serves as a proxy for neuronal activity, was virally delivered into the NAc of Tac2-Cre mice using known techniques^41, and the fluorescence signal was monitored by a skull-attached miniaturized microscope through a gradient-index (GRIN) lens implanted above the virus injection site (FIG. 2B, FIGS. 1C-1D). […] After extracting calcium signal traces and corresponding calcium signal transients of individual neurons from raw imaging video (FIG. 2C, FIG. 1E), the Tac2 neuronal response to saline and cocaine administration was analyzed. The calcium transient frequency from 6 mice (saline: 361 neurons, cocaine 356 neurons) were sorted and presented as heatmaps (FIG. 2D). […] The neuronal activity of cocaine excited/inhibited Tac2^+ neurons in the initial phase were substantially altered following cocaine injection and later partially recovered in the decay phase (FIG. 2I). To further validate these findings, calcium activity traces were analyzed before and after saline or cocaine injection. 3.0-fold more cocaine inhibited neurons than cocaine excited neurons in the initial phase (FIGS. 1F-1H).
Two weeks after GRIN lens implantation surgery, a baseplate was implanted to mount the miniature microscope and to check the fluorescence signal. Freely moving in vivo imaging can be performed after the nVoke microscope (Inscopix) is attached to the fixed baseplate. All recordings were made at 10 frames per second, LED intensities were 0.6˜1.2 mW, and gain (1.5×) was used. The calcium traces were extracted using Inscopix Data Processing Software (version 1.6, Inscopix). The raw recording videos were cropped, spatially down-sampled (2×), spatially filtered (cut-offs: low 0.005 pixel^−1, high 0.500 pixel^−1), and motion-corrected (using a reference frame from the input movie). The spatial location of individual neurons and their associated calcium activity signals were identified using the extended constrained non-negative matrix factorization (CNMF-E) CNMF-c algorithm^53,54 and outputted temporal traces as dF over noise. The identified neurons were manually checked to exclude overlapping neurons, blood vessels, or fluorescent debris moving in and out of focus. The calcium signal traces were further deconvolved using OASIS (online active set method to infer spikes) methods to estimate underlying calcium signal transients. The data matrix containing calcium signal traces and calcium signal transients were subjected to custom MATLAB code for further analysis.
Mice were tested in the homecages and were pre-habituated in the test room and they received 3-day saline injection to reduce stress. On day 1, mice were attached with nVoke microscope 30 minutes before experiment. Prior to injection, 10 minute baseline was recorded, then mice were intraperitoneally injected with saline, and a 10 minute recording was performed after the injection. On day 2, mice were again attached with n Voke microscope, and recorded for 10 minute baseline. Then mice were injected with cocaine (15 mg/kg) intraperitoneally. The post-injection initial phase (0-10 minutes) and decay phase (50-60 minutes) were recorded. Two data sets of neuronal activity were used: calcium signal traces over time or calcium signal transients over time, to analyze treatment (saline or cocaine injection) responsive neurons (excited or inhibited by treatment), 10-minute windows of pre- and post-injection were compared. For saline injection responsive neurons, saline (−10-0 minutes) and saline (0-10 minutes) responses of the two groups were compared. For cocaine injection responsive neurons, the initial phase (0-10 minutes) and the decay phase (50-60 minutes) were compared with the pre-injection phase (−10-0 minutes). […]

[4] = tested on: hM4Di-expressing Tac2+ neurons; experiment: Subthreshold cocaine-CPP with chemogenetic inhibition of Tac2+ neurons; type: in vivo, mice; conditions: CNO 5 mg/kg i.p.; cocaine 10 mg/kg i.p., 15-minutes sessions
Description: (§1) To this end, a Cre-dependent AAV encoding a modified human M3 muscarinic receptor (hM3Dq) was introduced into NAc of Tac2-Cre mice (FIG. 5E). […] The cocaine-CPP test was then repeated, in which mice were conditioned with cocaine plus CNO in one chamber, while with saline in the other chamber. […] To test the effect of Tac2 neuronal inhibition on cocaine-CPP, a subthreshold cocaine CPP paradigm was applied, in which mice were conditioned with a lower dose of cocaine (10 mg/kg i.p.) in a shorter conditioning session (15-minutes per session)^10,46.
(§2) A two-compartment CPP chamber was used with one compartment with grid rod style floor and the other with mesh style floor (Med Associates). Chamber size is 25×19×17 cm (L×D×H). Mice trajectories were tracked by infra-red photobeam detectors, and the travel distance and the duration the mice spent in the two compartments were recorded. […]
(§3) For hM3Dq chemogenetics experiments, the Tac2-Cre mice were conditioned for two days to saline/saline injections in one chamber in the morning, and CNO (2 mg/kg)/cocaine (15 mg/kg) injection in the other in the afternoon (30 minutes confinement, 6 hours apart). […] The time spent in the cocaine-coupled chambers was recorded, and the CPP scores were calculated by subtracting the time spent in the pre-conditioning phase from the time spent in the post-conditioning phase.

[5] = tested on: Tac2+ neurons (hM3Dq / hM4Di); experiment: Basal and cocaine-induced locomotion with chemogenetic manipulation of Tac2+ neurons; type: in vivo; conditions: CNO; hM3Dq or hM4Di mice; 1-hour post-treatment
Description: The experiment was conducted in an 8-chamber activity monitor system (Med Associates). Each test chamber (ENV-510 boxes) consists of a 27 cm×27 cm square base and 24-cm walls. […] Activity Monitor software (Med Associates) was used to generate trajectory maps. The distance traveled in the arena, and time spent in the center part of the arena, were recorded and analyzed. After each test session, the chambers were cleaned thoroughly with 20% ethanol.
The basal level of locomotion as well as cocaine-induced change of locomotor activity were assessed in the open field arena the same as the OFT. For chemogenetics experiments, 20 minutes after administration of either saline or CNO, mice were individually placed in the center of the test chamber, triggering the infra-red tracking system to record locomotor activity, as measured by the number of beam breaks. […] Different groups of mice were balanced across the 8 chambers to avoid potential environmental bias.

[6] = tested on: hM3Dq-expressing Tac2+ neurons; experiment: Cocaine intravenous self-administration (cocaine-IVSA) with chemogenetic excitation; conditions: CNO 2 mg/kg
[7] = tested on: hM3Dq-expressing Tac2+ neurons; experiment: cFos induction after CNO, chemogenetic activation; type: in vivo, mice; conditions: CNO 2 mg/kg i.p.
Description: Mice were transcardially perfused with PBS followed by 4% paraformaldehyde. Brains were then placed in a 30% sucrose solution for 2 days. The brains were frozen in Optimal Cutting Temperature (OCT) embedding media and 16 μm (for FISH) or 40 μm (for IF) coronal sections were cut with a vibratome (Leica, no. CM3050 S). For FISH experiments, the slices were mounted on SuperFrost Plus slides, and air dried. The multi-color FISH experiments were performed following the instructions of RNAscope Fluorescent Multiplex Assay (ACD Bioscience). For IF, cryostat sections were collected and incubated overnight with blocking solution (1×PBS containing 5% goat serum, 2.5% BSA, and 0.1% Triton X-100), and then treated with the following primary antibodies, diluted with blocking solution, for 1 day at 4° C.: rabbit anti-cFos (1:2000, Synaptic systems, #226003), chicken anti-GFP (1:2000, Aves Labs, no. GFP-1010), and chicken anti-mCherry (1:2000, Novus Biologicals, no. NBP2-25158). Samples were then washed three times with washing buffer (1×PBS containing 0.1% Triton X-100) and incubated with the Alexa Fluor conjugated secondary antibodies for 2 h at room temperature. The sections were mounted and imaged using a Zeiss LSM800 confocal microscope or an Olympus VS120 Slide Scanning System. […]

[8] = tested on: hM3Dq-expressing Tac2+ neurons; experiment: Cocaine-CPP with chemogenetic excitation of Tac2+ neurons; type: in vivo; conditions: CNO 2 mg/kg plus cocaine 15 mg/kg; hM3Dq-expressing mice
Description: as §1, §2, §3

[9] = tested on: hM4Di-expressing Tac2+ neurons; experiment: Cocaine intravenous self-administration (cocaine-IVSA) with chemogenetic inhibition; conditions: CNO 5 mg/kg
[10] = tested on: hM4Di-expressing Tac2+ neurons; experiment: cFos induction after CNO following cocaine exposure, chemogenetic inhibition; type: in vivo, mice; conditions: CNO 5 mg/kg i.p.
Tac2 mRNA = experiment: Cocaine-CPP after shRNA knock-down of Tac2 in NAc; type: in vivo, mice; conditions: AAV Tac2 shRNA vs control shRNA, bilateral NAc injection
Description: Numbers were calculated by summating Tac2^+ cells in serial 3 slides of the NAc region of individual mice (˜Bregma+1.2). […] Mice were subjected to 2-days conditioning, with each morning given saline injection followed by confined to saline-coupled chamber for 30 minutes, and in the afternoon, mice were given cocaine injection followed by confined to cocaine chamber for 30 minutes. Left: time spent in the cocaine-paired chambers pre- and post-conditioning, ****, p<0.0001, paired t-test. Right: the CPP scores were calculated by subtracting the time spent in pre-conditioning phase from the time spent in post-conditioning phase, ns, p=0.0975, unpaired t-test. […] FIGS. 10G-10I show dose-dependent response under cocaine-IVSA of Tac2 knockdown mice. The numbers of lever presses (FIG. 10G). Lever accuracy (FIG. 10H), and numbers of infusions (FIG. 10I) are shown. Data in FIGS. 10B-10I are presented as mean±SEM.
Using calcium recording and neuronal activity manipulation, a causal relationship has been established between Tac2 neuronal activity and cocaine-associated behaviors (CPP and IVSA). It was then explored how Tac2^+ neurons might execute their functions. […]
Small hairpin RNA (shRNA) for mouse Tac2 gene (NM_009312.2) were selected based on previous studies^50. […] The AAV viruses were injected into NAc regions and knock-down efficiency were evaluated by Tac2 RNA FISH.

[11] = decay phase 50-60 minutes, calcium transient frequency
[12] = initial phase 0-10 minutes, calcium transient frequency, 356 neurons, 6 mice

## COC(=O)[C@H]1[C@@H](OC(=O)c2ccccc2)C[C@@H]2CC[C@H]1N2C [cocaine]
[1]
  decay of cocaine levels in brain and plasma: decay one hour later
  time to peak of cocaine levels in brain and plasma: ≤ 10 min
NAc Tac2+ neurons [2]; calcium activity traces, 40 of 370
  neurons excited in the cocaine chamber: 10.8%
NAc Tac2+ neurons [2]; calcium activity traces, 59 of 370
  neurons inhibited in the cocaine chamber: 16.0%
NAc Tac2+ neurons [2]; calcium transient frequency, 16 of 370
  Tac2+ neurons with elevated activity in the cocaine chamber: 4.3%
NAc Tac2+ neurons [2]; calcium transient frequency, 62 of 370
  Tac2+ neurons with reduced activity in the cocaine chamber: 16.8%
NAc Tac2+ neurons [3]; 29/49 neurons
  initial phase cocaine excited neurons still excited in the decay phase: 59.2%
NAc Tac2+ neurons [3]; 30/117 neurons
  initial phase cocaine inhibited neurons still inhibited in the decay phase: 25.6%
NAc Tac2+ neurons [3]; [11]
  recorded Tac2+ neurons showing decreased activity: 14.9%
  recorded Tac2+ neurons showing increased activity: 11.5%
NAc Tac2+ neurons [3]; [12]
  recorded Tac2+ neurons showing decreased activity: 32.9%
  recorded Tac2+ neurons showing increased activity: 13.8%
NAc Tac2+ neurons [3]; initial phase, calcium activity traces
  cocaine inhibited neurons compared to cocaine excited neurons: 3.0 fold
NAc Tac2+ neurons [3]; initial phase, calcium transient frequency
  Tac2+ neurons inhibited by cocaine compared to those excited: 2.4 fold

## C[N+]1([O-])CCN(C2=Nc3cc(Cl)ccc3Nc3ccccc32)CC1 [CNO, clozapine-N-oxide]
[4]
  cocaine CPP in hM4Di-expressing vs mCherry-expressing mice: significantly higher
[5]
  basal locomotion: affected neither basal locomotion
  cocaine-induced hyperlocomotion: nor cocaine-induced hyperlocomotion
[6]
  cocaine infusions, hM3Dq vs mCherry group: fewer cocaine infusions
[6]; 0.33 mg/kg/infusion
  lever accuracy, hM3Dq vs mCherry group: reduced lever accuracy
[6]; cocaine 0.03, 0.1, 0.3, 1 mg/kg/infusion
  lever presses, hM3Dq vs mCherry group: significantly fewer lever presses
[7]
  cFos induction in hM3Dq-expressing neurons: resulted in cFos induction
  cFos induction in mCherry-expressing (control) neurons: not in the mCherry-expressing neurons
[8]
  cocaine-induced CPP: completely abolished
[9]
  cocaine infusions, hM4Di vs mCherry group: significantly lower number of cocaine infusions
  lever presses, hM4Di vs mCherry group: significantly higher number of lever presses
[9]; 0.33 mg/kg/infusion
  lever accuracy, hM4Di vs mCherry group: comparable lever accuracy
[10]
  cFos induction in hM4Di-expressing neurons following cocaine exposure: significantly decreased

B1: Tac2-shRNA: AAV construct expressing small hairpin RNA for mouse Tac2 gene (SEQ ID NO: 3, 4) (nucleic acid, listed as Mus musculus)
sense: GATCCGCCGCCTCAACCCCATAGCAATTAGAAGCTTGTAATTGCTATGGGGTTGAGGCTTTTTTT
Tac2 mRNA
  cocaine-induced place preference: neither affected
